The results in this text go back to ChEMBL document CHEMBL4800727 (2021).

Test [1] has as its target Sodium-dependent dopamine transporter (Homo sapiens, UniProt Q01959). The test is described as follows: GPCRScan assay: inhibition of DAT. The arrangement: radioligand conc. used [nm] 3.6 – 16.0, parental cells stable HEK.
Test [2] concerns the target Alpha-2A adrenergic receptor (Homo sapiens) (UniProt P08913). As to conditions: Compound concentration 10.0 uM.
Test [3] deals with Nociceptin receptor (Homo sapiens) (UniProt P41146). The test is described as follows: hORL1 Cerep panel. As to conditions: Compound concentration 10.0 uM.
Test [4] deals with Alpha-2A adrenergic receptor (Rattus norvegicus) (UniProt P22909). As to the kind of experiment: rAa2 Cerep panel. As to conditions: Compound concentration 10.0 uM.
Alpha-2A adrenergic receptor (Rattus norvegicus), sequence (P22909 whole entry): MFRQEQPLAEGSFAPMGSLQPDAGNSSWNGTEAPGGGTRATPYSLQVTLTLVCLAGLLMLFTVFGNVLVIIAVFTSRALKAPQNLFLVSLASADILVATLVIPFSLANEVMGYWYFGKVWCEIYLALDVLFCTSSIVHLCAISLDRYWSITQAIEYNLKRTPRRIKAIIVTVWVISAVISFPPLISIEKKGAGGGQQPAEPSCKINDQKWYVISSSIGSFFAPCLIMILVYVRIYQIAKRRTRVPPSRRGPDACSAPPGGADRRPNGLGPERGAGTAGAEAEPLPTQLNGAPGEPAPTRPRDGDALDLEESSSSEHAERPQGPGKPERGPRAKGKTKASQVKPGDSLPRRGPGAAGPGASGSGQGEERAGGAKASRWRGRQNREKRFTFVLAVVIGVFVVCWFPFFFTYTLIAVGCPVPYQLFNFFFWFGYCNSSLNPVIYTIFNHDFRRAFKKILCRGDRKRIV
The target in test [5] is Serine/threonine-protein kinase WNK3 (Homo sapiens) (UniProt Q9BYP7). As to the kind of experiment: WNK lysine deficient protein kinase 3 Millipore kinase panel. As to conditions: Compound concentration 10.0 uM.
The target of test [6] is PI3-kinase p110-delta/p85-alpha (Homo sapiens) (UniProt P27986+O00329). The test is described as follows: phosphoinositide-3-kinase, catalytic, delta polypeptide Millipore kinase panel. The test is classed as protein-complex assay. Particulars: Compound concentration 10.0 uM.
For test [7], the target named is Neuropeptide Y receptor type 2 (Homo sapiens) (UniProt P49146). As to the kind of experiment: hNPY2 Cerep panel. Particulars: Compound concentration 10.0 uM.
The target in test [8] is T1, 5-hydroxytryptamine receptor 2C (Homo sapiens) (UniProt P28335).
T1 sequence (whole entry): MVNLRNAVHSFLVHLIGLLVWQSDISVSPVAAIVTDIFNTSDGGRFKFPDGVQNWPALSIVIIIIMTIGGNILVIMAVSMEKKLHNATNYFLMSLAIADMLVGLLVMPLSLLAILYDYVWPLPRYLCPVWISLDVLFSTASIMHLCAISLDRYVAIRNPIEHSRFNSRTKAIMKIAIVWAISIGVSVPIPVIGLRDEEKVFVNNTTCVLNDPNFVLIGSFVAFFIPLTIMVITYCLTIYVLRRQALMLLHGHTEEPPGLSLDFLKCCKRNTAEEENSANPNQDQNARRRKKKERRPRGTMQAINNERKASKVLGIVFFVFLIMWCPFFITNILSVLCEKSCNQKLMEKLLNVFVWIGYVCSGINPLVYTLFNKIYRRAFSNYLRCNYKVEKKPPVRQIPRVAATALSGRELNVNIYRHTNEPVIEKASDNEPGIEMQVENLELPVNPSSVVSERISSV
The test is described as follows: h5HT2C Cerep panel. As to conditions: Compound concentration 10.0 uM.

Test [9] addresses Somatostatin receptor (Mus musculus) (UniProt P30935+O08858+P30875+P30873+P49660). The test is described as follows: mSST Cerep panel. The test is classed as protein assay. As to conditions: Compound concentration 10.0 uM.
Test [10] concerns the target Neurotensin receptor type 1 (Homo sapiens) (UniProt P30989). The test is described as follows: hNT1 Cerep panel. Particulars: Compound concentration 10.0 uM.
Test [11] deals with Mitogen-activated protein kinase 14 (Homo sapiens) (UniProt Q16539). The test is described as follows: mitogen-activated protein kinase 14 Millipore kinase panel. As to conditions: Compound concentration 10.0 uM.
Test [12] concerns the target Homeodomain-interacting protein kinase 1 (Homo sapiens) (UniProt Q86Z02). The test is described as follows: homeodomain interacting protein kinase 1 Millipore kinase panel. As to conditions: Compound concentration 10.0 uM.
Test [13] has as its target Tyrosine-protein kinase Lck (Homo sapiens) (UniProt P06239). The test is described as follows: hLck Cerep panel. Particulars: Compound concentration 10.0 uM.
The target in test [14] is P2X receptor (Rattus norvegicus) (UniProt P51579+P49653+P51578+Q64663+P47824+P51577+P49654). The test is described as follows: rP2X Cerep panel. The class given is protein assay. Particulars: Compound concentration 10.0 uM.
For test [15], the target named is Rhodopsin kinase GRK7 (Homo sapiens) (UniProt Q8WTQ7). As to the kind of experiment: G protein-coupled receptor kinase 7 Millipore kinase panel. As to conditions: Compound concentration 10.0 uM.
Test [16] addresses Serine/threonine-protein kinase 17A (Homo sapiens) (UniProt Q9UEE5). The test is described as follows: serine/threonine kinase 17a Millipore kinase panel. Particulars: Compound concentration 10.0 uM.
Test [17] addresses Tyrosine-protein kinase Fyn (Homo sapiens) (UniProt P06241). As to the kind of experiment: FYN oncogene related to SRC, FGR, YES Millipore kinase panel. Particulars: Compound concentration 10.0 uM.
For test [18], the target named is Cyclin-dependent kinase 5/CDK5 activator 1 (Homo sapiens) (UniProt Q00535+Q15078). The test is described as follows: cyclin-dependent kinase 5 / p35 Millipore kinase panel. The class given is protein-complex assay. As to conditions: Compound concentration 10.0 uM.
Test [19] has as its target Alpha-1A adrenergic receptor (Rattus norvegicus) (UniProt P43140). The test is described as follows: rAa1 Cerep panel. As to conditions: Compound concentration 10.0 uM.
Test [20] concerns the target Serine/threonine-protein kinase 24 (Homo sapiens) (UniProt Q9Y6E0). The test is described as follows: serine/threonine kinase 24 Millipore kinase panel. Particulars: Compound concentration 10.0 uM.
For test [21], the target named is Muscarinic acetylcholine receptor M5 (Homo sapiens) (UniProt P08912). Particulars: Compound concentration 10.0 uM.
Muscarinic acetylcholine receptor M5 (Homo sapiens), sequence (P08912 whole entry): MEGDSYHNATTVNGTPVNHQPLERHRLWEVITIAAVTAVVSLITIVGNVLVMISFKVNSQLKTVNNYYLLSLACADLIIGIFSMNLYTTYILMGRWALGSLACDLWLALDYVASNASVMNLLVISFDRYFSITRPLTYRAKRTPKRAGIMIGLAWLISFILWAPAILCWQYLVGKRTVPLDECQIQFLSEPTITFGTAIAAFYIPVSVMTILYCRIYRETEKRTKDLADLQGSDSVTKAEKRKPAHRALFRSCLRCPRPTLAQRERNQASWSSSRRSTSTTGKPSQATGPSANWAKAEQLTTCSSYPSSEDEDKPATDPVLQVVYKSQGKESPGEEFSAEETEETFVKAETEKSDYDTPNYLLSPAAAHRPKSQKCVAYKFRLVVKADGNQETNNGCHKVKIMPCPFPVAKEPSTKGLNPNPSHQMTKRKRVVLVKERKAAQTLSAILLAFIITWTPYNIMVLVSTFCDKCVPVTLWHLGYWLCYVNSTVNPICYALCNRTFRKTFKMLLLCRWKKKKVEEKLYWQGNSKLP
Test [22] deals with Vasoactive intestinal polypeptide receptor 1 (Homo sapiens) (UniProt P32241). The test is described as follows: hVPAC1 Cerep panel. As to conditions: Compound concentration 10.0 uM.
Test [23] addresses Mu-type opioid receptor (Homo sapiens) (UniProt P35372). The test is described as follows: hOP3 Cerep panel. As to conditions: Compound concentration 10.0 uM.
For test [24], the species on record is Rattus norvegicus. The test is described as follows: rGlutamate (ionotropic) kanic acid Cerep panel. Particulars: Compound concentration 10.0 uM.
Test [25] has as its target G protein-coupled receptor kinase 5 (Homo sapiens) (UniProt P34947). The test is described as follows: G protein-coupled receptor kinase 5 Millipore kinase panel. As to conditions: Compound concentration 10.0 uM.
Test [26] has as its target Tyrosine-protein kinase Lck (Homo sapiens) (UniProt P06239). As to the kind of experiment: lymphocyte-specific protein tyrosine kinase Millipore kinase panel. As to conditions: Compound concentration 10.0 uM.
The target in test [27] is Interleukin-1 receptor-associated kinase 4 (Homo sapiens) (UniProt Q9NWZ3). The test is described as follows: interleukin-1 receptor-associated kinase 4 Millipore kinase panel. Particulars: Compound concentration 10.0 uM.
The target of test [28] is Glutamate receptor ionotropic, AMPA (Rattus norvegicus) (UniProt P19491+P19492+P19493+P19490). As to the kind of experiment: rGlutamate (ionotropic) AMPA Cerep panel. The test is classed as protein-complex assay. Particulars: Compound concentration 10.0 uM.
Test [29] is filed under the species Rattus norvegicus. As to conditions: Compound concentration 10.0 uM.
Test [30] deals with Serine/threonine-protein kinase 33 (Homo sapiens) (UniProt Q9BYT3). As to the kind of experiment: serine/threonine kinase 33 Millipore kinase panel. As to conditions: Compound concentration 10.0 uM.
Test [31] has as its target Serine/threonine-protein kinase pim-3 (Homo sapiens) (UniProt Q86V86). As to the kind of experiment: pim-3 oncogene Millipore kinase panel. Particulars: Compound concentration 10.0 uM.
Test [32] has as its target MAP kinase-activated protein kinase 5 (Homo sapiens) (UniProt Q8IW41). As to the kind of experiment: mitogen-activated protein kinase-activated protein kinase 5 Millipore kinase panel. As to conditions: Compound concentration 10.0 uM.
In test [33] the target is Muscarinic acetylcholine receptor M3 (Homo sapiens) (UniProt P20309). The test is described as follows: hM3 Cerep panel. As to conditions: Compound concentration 10.0 uM.
The target of test [34] is Fibroblast growth factor receptor 4 (Homo sapiens) (UniProt P22455). The test is described as follows: fibroblast growth factor receptor 4 Millipore kinase panel. As to conditions: Compound concentration 10.0 uM.
Fibroblast growth factor receptor 4 (Homo sapiens), sequence (P22455 22-802 limits assumed): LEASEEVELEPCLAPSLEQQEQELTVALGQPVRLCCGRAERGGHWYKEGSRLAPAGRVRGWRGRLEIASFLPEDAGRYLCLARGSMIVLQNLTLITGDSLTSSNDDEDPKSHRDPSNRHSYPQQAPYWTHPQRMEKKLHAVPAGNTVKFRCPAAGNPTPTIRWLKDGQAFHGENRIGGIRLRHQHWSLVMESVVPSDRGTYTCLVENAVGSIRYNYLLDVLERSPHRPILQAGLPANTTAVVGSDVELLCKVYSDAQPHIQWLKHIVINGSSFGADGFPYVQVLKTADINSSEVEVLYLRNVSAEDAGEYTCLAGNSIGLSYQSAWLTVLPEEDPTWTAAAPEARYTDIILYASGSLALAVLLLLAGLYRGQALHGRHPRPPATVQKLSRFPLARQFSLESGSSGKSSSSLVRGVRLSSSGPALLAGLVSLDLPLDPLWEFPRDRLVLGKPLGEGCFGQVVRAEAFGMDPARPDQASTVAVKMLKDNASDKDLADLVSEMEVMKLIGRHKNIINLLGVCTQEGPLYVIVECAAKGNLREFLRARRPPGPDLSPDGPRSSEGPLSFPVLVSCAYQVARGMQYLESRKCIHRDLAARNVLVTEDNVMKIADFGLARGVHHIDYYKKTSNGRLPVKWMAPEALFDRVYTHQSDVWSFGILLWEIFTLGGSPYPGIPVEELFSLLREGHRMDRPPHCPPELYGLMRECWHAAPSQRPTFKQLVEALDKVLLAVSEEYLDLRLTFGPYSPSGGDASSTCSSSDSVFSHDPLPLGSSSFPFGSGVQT
A further test is filed under the species Homo sapiens. The test is described as follows: hSigma Cerep panel. Particulars: Compound concentration 10.0 uM.
Test [35] has as its target Muscarinic acetylcholine receptor M5 (Homo sapiens) (UniProt P08912). The test is described as follows: hM5 Cerep panel. As to conditions: Compound concentration 10.0 uM.
For test [36], the target named is Neuropeptide Y receptor type 1 (Homo sapiens) (UniProt P25929). The test is described as follows: hNPY1 Cerep panel. Particulars: Compound concentration 10.0 uM.
Neuropeptide Y receptor type 1 (Homo sapiens), sequence (P25929 whole entry): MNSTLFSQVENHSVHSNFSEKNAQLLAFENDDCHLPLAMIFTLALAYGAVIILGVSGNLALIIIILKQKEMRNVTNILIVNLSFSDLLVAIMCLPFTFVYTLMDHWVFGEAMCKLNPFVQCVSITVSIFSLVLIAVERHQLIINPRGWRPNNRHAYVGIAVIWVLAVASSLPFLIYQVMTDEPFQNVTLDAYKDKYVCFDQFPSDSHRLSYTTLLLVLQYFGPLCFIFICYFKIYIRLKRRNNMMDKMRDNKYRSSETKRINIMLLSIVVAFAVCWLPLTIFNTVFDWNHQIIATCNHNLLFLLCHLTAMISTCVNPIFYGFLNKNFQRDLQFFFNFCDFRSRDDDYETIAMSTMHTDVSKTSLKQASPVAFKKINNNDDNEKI
The target in test [37] is Tyrosine-protein kinase Lyn (Homo sapiens) (UniProt P07948). As to the kind of experiment: v-yes-1 Yamaguchi sarcoma viral related oncogene homolog Millipore kinase panel. Particulars: Compound concentration 10.0 uM.
Test [38] deals with Protein kinase C beta type (Homo sapiens) (UniProt P05771). As to the kind of experiment: protein kinase C, beta 1 Millipore kinase panel. Particulars: Compound concentration 10.0 uM.
Test [39] addresses Serine/threonine-protein kinase 3 (Homo sapiens) (UniProt Q13188). The test is described as follows: serine/threonine kinase 3 Millipore kinase panel. As to conditions: Compound concentration 10.0 uM.
For test [40], the target named is Serine/threonine-protein kinase Nek7 (Homo sapiens) (UniProt Q8TDX7). The test is described as follows: NIMA -related kinase 7 Millipore kinase panel. Particulars: Compound concentration 10.0 uM.
Serine/threonine-protein kinase Nek7 (Homo sapiens), sequence (Q8TDX7 whole entry, looked up): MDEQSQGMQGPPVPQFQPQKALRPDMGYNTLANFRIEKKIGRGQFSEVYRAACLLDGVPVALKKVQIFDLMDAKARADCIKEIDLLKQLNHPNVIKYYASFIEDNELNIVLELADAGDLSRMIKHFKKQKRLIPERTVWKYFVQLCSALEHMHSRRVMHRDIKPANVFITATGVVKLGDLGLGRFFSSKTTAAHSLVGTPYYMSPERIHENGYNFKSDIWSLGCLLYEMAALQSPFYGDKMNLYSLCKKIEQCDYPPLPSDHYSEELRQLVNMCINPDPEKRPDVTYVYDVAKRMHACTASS
Test [41] addresses Cholecystokinin receptor type A (Homo sapiens) (UniProt P32238). The test is described as follows: hCCKA Cerep panel. As to conditions: Compound concentration 10.0 uM.
The target in test [42] is Mitogen-activated protein kinase 10 (Homo sapiens) (UniProt P53779). As to the kind of experiment: mitogen-activated protein kinase 10 Millipore kinase panel. Particulars: Compound concentration 10.0 uM.
Mitogen-activated protein kinase 10 (Homo sapiens), sequence (P53779 whole entry): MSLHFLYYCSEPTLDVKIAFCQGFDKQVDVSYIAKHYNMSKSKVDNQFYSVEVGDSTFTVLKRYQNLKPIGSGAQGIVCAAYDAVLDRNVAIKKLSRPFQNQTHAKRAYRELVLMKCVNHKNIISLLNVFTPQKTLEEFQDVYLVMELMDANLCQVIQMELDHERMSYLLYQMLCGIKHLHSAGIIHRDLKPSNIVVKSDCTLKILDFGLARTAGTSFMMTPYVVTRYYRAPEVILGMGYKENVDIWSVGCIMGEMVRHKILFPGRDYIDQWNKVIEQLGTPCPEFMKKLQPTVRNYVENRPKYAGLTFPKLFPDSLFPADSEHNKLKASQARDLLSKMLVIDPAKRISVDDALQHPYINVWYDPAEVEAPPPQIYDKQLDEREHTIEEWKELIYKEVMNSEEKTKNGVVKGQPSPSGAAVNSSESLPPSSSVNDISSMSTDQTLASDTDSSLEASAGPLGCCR
Test [43] addresses Delta-type opioid receptor (Homo sapiens) (UniProt P41143). As to the kind of experiment: hOP1 Cerep panel. As to conditions: Compound concentration 10.0 uM.
The target of test [44] is CDK3/cyclin E (Homo sapiens) (UniProt P24864+O96020+Q00526). As to the kind of experiment: cyclin-dependent kinase 3 / cyclinE Millipore kinase panel. The class given is protein-complex assay. As to conditions: Compound concentration 10.0 uM.

Tyrosine-protein kinase Lck (Homo sapiens), sequence (P06239 2-509 limits assumed): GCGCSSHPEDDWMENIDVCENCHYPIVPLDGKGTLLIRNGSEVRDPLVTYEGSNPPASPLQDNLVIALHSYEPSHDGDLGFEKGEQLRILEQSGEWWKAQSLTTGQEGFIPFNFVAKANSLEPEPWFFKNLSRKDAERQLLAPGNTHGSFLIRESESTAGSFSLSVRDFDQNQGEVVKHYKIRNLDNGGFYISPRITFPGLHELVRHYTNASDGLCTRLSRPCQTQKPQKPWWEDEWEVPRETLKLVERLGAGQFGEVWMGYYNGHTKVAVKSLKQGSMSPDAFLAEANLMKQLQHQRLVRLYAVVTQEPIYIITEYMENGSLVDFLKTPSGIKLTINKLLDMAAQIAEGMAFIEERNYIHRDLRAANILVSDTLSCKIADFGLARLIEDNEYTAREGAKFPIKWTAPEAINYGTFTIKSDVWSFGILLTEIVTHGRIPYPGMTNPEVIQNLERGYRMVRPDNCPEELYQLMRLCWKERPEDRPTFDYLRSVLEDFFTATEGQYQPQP
Sodium-dependent dopamine transporter, sequence (Q01959 whole entry): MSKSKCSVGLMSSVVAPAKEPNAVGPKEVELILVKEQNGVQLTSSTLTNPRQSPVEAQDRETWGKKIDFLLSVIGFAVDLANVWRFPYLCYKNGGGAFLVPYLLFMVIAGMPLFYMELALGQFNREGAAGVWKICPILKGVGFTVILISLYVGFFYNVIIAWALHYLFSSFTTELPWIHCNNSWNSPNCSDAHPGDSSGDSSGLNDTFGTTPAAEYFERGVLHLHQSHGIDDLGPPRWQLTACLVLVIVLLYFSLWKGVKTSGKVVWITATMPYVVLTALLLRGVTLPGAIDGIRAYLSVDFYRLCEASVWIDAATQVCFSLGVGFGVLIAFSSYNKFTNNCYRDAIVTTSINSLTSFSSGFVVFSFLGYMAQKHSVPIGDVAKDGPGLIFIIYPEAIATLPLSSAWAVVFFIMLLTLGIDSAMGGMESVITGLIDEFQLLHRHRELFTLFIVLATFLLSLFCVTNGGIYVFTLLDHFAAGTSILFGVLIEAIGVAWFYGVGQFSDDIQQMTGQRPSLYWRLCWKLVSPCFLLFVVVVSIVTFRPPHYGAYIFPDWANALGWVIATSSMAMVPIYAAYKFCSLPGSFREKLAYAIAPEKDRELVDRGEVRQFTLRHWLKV
Mu-type opioid receptor (Homo sapiens), sequence (P35372 whole entry): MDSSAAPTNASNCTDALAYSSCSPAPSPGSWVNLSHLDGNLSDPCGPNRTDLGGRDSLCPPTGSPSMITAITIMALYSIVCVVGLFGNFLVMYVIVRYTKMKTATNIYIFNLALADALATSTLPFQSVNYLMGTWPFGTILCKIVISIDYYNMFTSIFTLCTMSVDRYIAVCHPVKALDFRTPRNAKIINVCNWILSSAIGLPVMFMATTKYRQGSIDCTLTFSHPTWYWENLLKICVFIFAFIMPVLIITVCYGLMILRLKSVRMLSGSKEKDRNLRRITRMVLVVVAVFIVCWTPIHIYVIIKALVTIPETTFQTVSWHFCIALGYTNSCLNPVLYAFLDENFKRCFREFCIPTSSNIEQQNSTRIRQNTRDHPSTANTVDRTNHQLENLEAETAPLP
MAP kinase-activated protein kinase 5 (Homo sapiens), sequence (Q8IW41 whole entry): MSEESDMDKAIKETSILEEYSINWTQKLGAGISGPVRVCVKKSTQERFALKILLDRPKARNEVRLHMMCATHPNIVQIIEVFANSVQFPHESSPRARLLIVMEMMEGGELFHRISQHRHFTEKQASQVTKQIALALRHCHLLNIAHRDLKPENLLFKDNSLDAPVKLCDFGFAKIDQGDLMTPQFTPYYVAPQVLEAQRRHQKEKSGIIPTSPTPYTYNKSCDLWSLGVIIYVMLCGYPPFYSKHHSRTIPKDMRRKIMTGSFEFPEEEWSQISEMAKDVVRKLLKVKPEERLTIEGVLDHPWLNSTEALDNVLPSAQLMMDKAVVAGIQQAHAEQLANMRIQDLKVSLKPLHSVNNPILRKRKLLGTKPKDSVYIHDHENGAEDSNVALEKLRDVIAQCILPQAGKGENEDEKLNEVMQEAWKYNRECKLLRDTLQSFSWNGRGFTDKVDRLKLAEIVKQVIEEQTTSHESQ

A word on the inhibition: it is the drop in the measured response relative to a control, in per cent. For the compound `c1ccc(C2CCN(c3cnc4c(N5CCOCC5)nccn34)CC2)cc1`, the Ki in [1] (read-out: Ki) is 4.13 µM; in test [1] (read-out: pKi (converted)), 4.17 µM. The inhibition in test [2] was 34.6%.
Turning to `COCCc1ccc(-c2c(C)nc3c(N4CCOCC4)ccnn23)cn1` [JNJ-42396302], the effect in [3] is 2.15%; in [4] it was 5.2%; in test [7], 4.45%; in test [8] it was -1.95%; in test [9], 2.8%; in [10] it was 12.3%. Also, the effect is -2.4% in [13]; 6.95% in [14]; -2.55% in [19]; 2.05% in test [22]; 2.15% in [23]; -25.3% in the test filed under Rattus norvegicus [24]. Also, the effect is 7.7% in [28]; 13.9% in [33]; 1.55% in the test filed under Homo sapiens; -0.55% in [35]; 0.15% in [36]; -19.6% in test [41]. Moreover, the effect in test [43] turned out to be 8.95%. The inhibition was 0% in [5]; 1% in [6]; -4% in test [11]; 11% in test [12]; 6% in test [15]; -9% in [16]. For the same compound, the inhibition was 3% in [17]; -5% in test [18]; 9% in test [20]; -1.98% in test [21]; -4% in test [25]; 13% in test [26]. Moreover, the inhibition in [27] was -1%; in the test filed under Rattus norvegicus [29] it was 2.18%; in test [30], -1%; in test [31] it was 11%; in test [32], 7%; in test [34] it was -7%. The inhibition in test [37] was -1%; in [38] it was -5%; in test [39], -8%; in test [40], 2%; in test [42], 18%; in test [44] it was 7%.
